The structures appear in SMILES notation.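 48-hour exposure; five concentrations; linearly interpolated endpoints. GI50 = concentration required for 50% inhibition of growth. The concentration for full growth arrest is given as TGI.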 Where a SMILES comes first, the peptide text is derived from it. The star is where a group is joined. Boc = CC(C)(C)OC(=O)* Where only a bound is given, the exact number is not on record here.

For one experiment, the system named is CCRF-CEM leukemia. Briefly: DTP human tumour cell line panel, 48 h.
As a reminder, the TGI is the concentration at which net growth stops. `CS(=O)(=O)OCCn1c(=O)n(CCOS(C)(=O)=O)c(=O)n(CCOS(C)(=O)=O)c1=O`: the TGI was > 100 µM.
For the compound `c1ccc2c(c1)NC(C1OC3CCCN3C1C1Nc3ccccc3S1)S2` (stereo not given), the TGI was > 100 µM.
The same measure, in the same setting: the same measure for `CSc1c(C#N)c(N)n2c1C(=O)N(c1ccccc1)C2=S`: > 100 µM.
A word on the GI50: it is the concentration at which growth is held to half of that of the control. On to `COc1ccc2cc(-c3ccc(-c4ccc(C(=N)N)s4)s3)ccc2c1`, for which the GI50 is 1510 nM and the TGI came to 4.21 µM.
As to `N#CCCN(CCC#N)c1ccc(/C=C2\N=C(c3ccccc3)N(c3ccc(Cl)cc3)C2=O)cc1`, the concentration for total growth inhibition (TGI) is > 100 µM.
Turning to `O=C1CN2C(c3ccccc3)=NN(c3ccc([N+](=O)[O-])cc3)C2(c2ccccc2)c2cc(Cl)ccc2N1CC1CC1` (stereo not given), the TGI was > 100 µM.
For `CCN(CCO)CC1COc2ccccc2O1` (stereo not given), the TGI is > 100 µM.
The same measure, in the same setting: to `c1ccc2sc(SCSc3nc4ccccc4s3)nc2c1` belongs > 100 µM.
On the same count and under the same terms, the same measure for `CCOC(=O)c1c(-c2ccc(OC)cc2)c(C#N)c(=S)n(C2OC(COC(C)=O)C(OC(C)=O)C(OC(C)=O)C2OC(C)=O)c1C` (stereo not given): > 100 µM.
In the case of `O=c1cc(N=P(c2ccccc2)(c2ccccc2)c2ccccc2)n(-c2ccccc2)c(=O)n1-c1ccccc1`, the total growth inhibition concentration (TGI) is 82.5 µM.
`O=C(NCCCN(CCCCN(CCCNC(=O)C(F)(F)F)Cc1ccccc1)Cc1ccccc1)C(F)(F)F` came in with a TGI of 51.7 µM.
For `O=C(CCCN1CCC2(CC1)CC(=O)N(N1CCOCC1)C2=O)c1ccccc1`, the TGI was > 100 µM.
Same read-out and setting: to `O=C1/C(=C\c2cccc(Oc3ccccc3)c2)S(=O)(=O)C(c2ccccc2)N1Cc1ccccc1` (stereo not given) belongs > 100 µM.
In the case of `Cc1ccccc1C(O)(c1nccn1C)c1nccn1C`, the total growth inhibition concentration (TGI) was > 100 µM.
`C=CCn1c(=O)ccn(COCCO)c1=O`: the TGI is > 100 µM.
Turning to `CCOC(=N)n1c(=O)n(C2=NCCN2)c2ccccc21`, the TGI was > 100 µM.
On to `O=C(N=Nc1cc(Cl)ccc1Cl)NNc1cc(Cl)ccc1Cl`, for which the TGI came out at 49.8 µM.
For `CCOC(=O)NC(=S)NN(C)C1=NCC(C)(C)S1`, the concentration for total growth inhibition (TGI) is > 100 µM.
Regarding `O=C(CNc1ccccc1Cl)Nn1c(-c2ccccc2)nc2ccccc2c1=O`, the concentration for total growth inhibition (TGI) came to 70.5 µM. This lies in the double-digit micromolar range.
Regarding `Cc1cc2[nH]c3[nH]c(=O)[nH]c(=O)c3c2cc1C`, the total growth inhibition concentration (TGI) was > 100 µM.
In the case of `O=c1c2ccccc2nc2[nH][nH]c(=S)n12`, the total growth inhibition concentration (TGI) was > 100 µM.
For `CC1(C)N=C(C(N)=O)c2ncn(CCCO)c2N1`, the total growth inhibition concentration (TGI) was > 100 µM.
Regarding `CC(C)(C)OC(=O)NCC(=O)NCC(=O)NCC(=O)NCC(=O)O` (Boc-GGGG-OH), the TGI was > 100 µM.
Same read-out and setting: the same measure for `COc1ccc(CC(O)CN2CCOCC2)cc1` (stereo not given): > 100 µM; for `CC(O)C1CC1(CO)CNc1cc(Cl)nc(N)n1` (stereo not given): > 100 µM; for `CN(C)Cc1cc(C(=O)/C=C/c2ccc(O)cc2)cc(CN(C)C)c1O`: 88.3 µM.

The test system of another experiment is COLO 205 colon. Briefly: DTP human tumour cell line panel, 48 h.
As to `CS(=O)(=O)OCCn1c(=O)n(CCOS(C)(=O)=O)c(=O)n(CCOS(C)(=O)=O)c1=O`, the total growth inhibition concentration (TGI) was > 100 µM.
Regarding `c1ccc2c(c1)NC(C1OC3CCCN3C1C1Nc3ccccc3S1)S2` (stereo not given), the concentration for total growth inhibition (TGI) is > 100 µM.
In turn, `COc1nc(C#CCC(C)O)nc(OC)n1` (stereo not given) had a TGI of 56.8 µM. This lies in the double-digit micromolar range.
As for `Cc1c2c(n(CCc3ccc(Cl)cc3)c1C)NN=C(C#N)S2(=O)=O`, the TGI is > 100 µM.
On the same count and under the same terms, the same measure for `CSc1c(C#N)c(N)n2c1C(=O)N(c1ccccc1)C2=S`: 78.3 µM.
With `COc1ccc2cc(-c3ccc(-c4ccc(C(=N)N)s4)s3)ccc2c1`, the GI50 was 2040 nM and the concentration for total growth inhibition (TGI) was 4.24 µM.
Consider `N#CCCN(CCC#N)c1ccc(/C=C2\N=C(c3ccccc3)N(c3ccc(Cl)cc3)C2=O)cc1`, for which the TGI was > 100 µM.
As for `NNC(=O)c1ccc[n+](CCc2ccccc2)c1`, the TGI is > 100 µM.
Take `O=C1CN2C(c3ccccc3)=NN(c3ccc([N+](=O)[O-])cc3)C2(c2ccccc2)c2cc(Cl)ccc2N1CC1CC1` (stereo not given): the total growth inhibition concentration (TGI) was > 100 µM.
`CCN(CCO)CC1COc2ccccc2O1` (stereo not given): the concentration for total growth inhibition (TGI) was > 100 µM.
Take `CCOC(=O)c1c(-c2ccc(OC)cc2)c(C#N)c(=S)n(C2OC(COC(C)=O)C(OC(C)=O)C(OC(C)=O)C2OC(C)=O)c1C` (stereo not given): the TGI was > 100 µM.
The compound `O=C(NCCCN(CCCCN(CCCNC(=O)C(F)(F)F)Cc1ccccc1)Cc1ccccc1)C(F)(F)F` registered a TGI of 26.8 µM.
Same read-out and setting: to `O=C(CCCN1CCC2(CC1)CC(=O)N(N1CCOCC1)C2=O)c1ccccc1` belongs > 100 µM; to `O=C1/C(=C\c2cccc(Oc3ccccc3)c2)S(=O)(=O)C(c2ccccc2)N1Cc1ccccc1` (stereo not given), 57 µM.
In the case of `Cc1ccccc1C(O)(c1nccn1C)c1nccn1C`, the TGI is > 100 µM.
Still for that read-out and setting: to `C=CCn1c(=O)ccn(COCCO)c1=O` belongs > 100 µM; to `CCOC(=N)n1c(=O)n(C2=NCCN2)c2ccccc21`, > 100 µM.
Compound `O=C(N=Nc1cc(Cl)ccc1Cl)NNc1cc(Cl)ccc1Cl` came in with a total growth inhibition concentration (TGI) of 41.1 µM. That is a double-digit micromolar value.
Take `CSc1cc(Cl)c(C)cc1S(=O)(=O)NC(=O)NNc1ccc(Cl)cc1`: the TGI is > 100 µM.
For `CCOC(=O)NC(=S)NN(C)C1=NCC(C)(C)S1`, the TGI is > 100 µM.
For `O=C(CNc1ccccc1Cl)Nn1c(-c2ccccc2)nc2ccccc2c1=O`, the TGI came to 34.6 µM.
With `Cc1cc2[nH]c3[nH]c(=O)[nH]c(=O)c3c2cc1C`, the TGI was > 100 µM.
`O=c1c2ccccc2nc2[nH][nH]c(=S)n12`: the TGI was > 100 µM.
`CC1(C)N=C(C(N)=O)c2ncn(CCCO)c2N1`: the TGI was > 100 µM.
Same read-out and setting: to `CC(C)(C)OC(=O)NCC(=O)NCC(=O)NCC(=O)NCC(=O)O` (Boc-GGGG-OH) belongs > 100 µM; to `CC(O)C1CC1(CO)CNc1cc(Cl)nc(N)n1` (stereo not given), > 100 µM.
Regarding `CN(C)Cc1cc(C(=O)/C=C/c2ccc(O)cc2)cc(CN(C)C)c1O`, the TGI was determined as 33.9 µM.

For another experiment, the system named is MDA-MB-435. Briefly: DTP human tumour cell line panel, 48 h.
For `CS(=O)(=O)OCCn1c(=O)n(CCOS(C)(=O)=O)c(=O)n(CCOS(C)(=O)=O)c1=O`, the total growth inhibition concentration (TGI) was > 100 µM.
On the same count and under the same terms, the same measure for `c1ccc2c(c1)NC(C1OC3CCCN3C1C1Nc3ccccc3S1)S2` (stereo not given): > 100 µM; for `COc1nc(C#CCC(C)O)nc(OC)n1` (stereo not given): 54.6 µM.
On to `Cc1c2c(n(CCc3ccc(Cl)cc3)c1C)NN=C(C#N)S2(=O)=O`, for which the total growth inhibition concentration (TGI) was > 100 µM.
`CSc1c(C#N)c(N)n2c1C(=O)N(c1ccccc1)C2=S`: the concentration for total growth inhibition (TGI) was > 100 µM.
As for `COc1ccc2cc(-c3ccc(-c4ccc(C(=N)N)s4)s3)ccc2c1`, the GI50 is 2010 nM and the TGI stood at 4.48 µM.
As for `N#CCCN(CCC#N)c1ccc(/C=C2\N=C(c3ccccc3)N(c3ccc(Cl)cc3)C2=O)cc1`, the TGI is > 100 µM.
Regarding `NNC(=O)c1ccc[n+](CCc2ccccc2)c1`, the concentration for total growth inhibition (TGI) was > 100 µM.
As to `O=C1CN2C(c3ccccc3)=NN(c3ccc([N+](=O)[O-])cc3)C2(c2ccccc2)c2cc(Cl)ccc2N1CC1CC1` (stereo not given), the TGI was > 100 µM.

Values taken from PubChem BioAssay (NCI).
